Measured values reported in patent publication US12263248B2, “Compounds and compositions for intracellular delivery of therapeutic agents” (ModernaTX, Inc., priority 2018, dated 2025).

How the values were obtained:
[1] = Apparent (surface) pKa of the LNP formulation (TNS assay); assay type: physicochemical; settings: Table 1A
Protocol: Using sodium hydroxide (1 M) and hydrochloric acid (1 M), 21 unique buffers were prepared from the master buffer stock at pH values between about 3 and 12. Next, a stock of 300 μM 6-(p-Toluidino)-2-naphthalenesulfonic acid sodium salt (TNS reagent) in DMSO was prepared and the LNP was mixed with the desired formulation buffer at a concentration of 0.04 mg/mL mRNA. This assay has been validated in 1× PBS and 20 mM Tris w/8% sucrose buffer. The buffer solutions at various pH values were added to a 96-well plate in triplicate for each pH. To each well was added 3.26 μL of LNP sample at a mRNA concentration of 0.04 mg/mL and 2.0 μL of 300 μM TNS reagent solution. After careful mixing, the resulting fluorescence values were read for each plate to create a sigmoidal plot of the fluorescence values vs. buffer pH. The […] inflection point of this curve is the apparent pKa of the LNP formulation.

[2] = Encapsulation efficiency of RNA (QUANT-IT RIBOGREEN RNA assay); assay type: physicochemical; settings: Table 1A
Protocol: For nanoparticle compositions including an RNA, a QUANT-IT™ RIBOGREEN® RNA assay (Invitrogen Corporation Carlsbad, CA) can be used to evaluate the encapsulation of an RNA by the nanoparticle composition. The samples are diluted to a concentration of approximately […] in a TE buffer solution (10 mM Tris-HCl, 1 mM EDTA, pH 7.5). 50 μL of the diluted samples are transferred to a polystyrene 96 well plate and either 50 μL of TE buffer or 50 μL of a 2% Triton X-100 solution is added to the wells. The plate is incubated at a temperature of 37° C. for 15 minutes. The RIBOGREEN® reagent is diluted 1:100 in TE buffer, and 100 μL of this solution is added to each well. The fluorescence intensity can be measured using a fluorescence plate reader (Wallac Victor 1420 Multilabel Counter; Perkin Elmer, Waltham, MA) at an excitation wavelength of, for example, about 480 nm and an emission wavelength of, for example, about 520 nm. The fluorescence values of the reagent blank are subtracted from that of each of the samples and the percentage of free RNA is determined by dividing the fluorescence intensity of the intact sample (without addition of Triton X-100) by the fluorescence value of the disrupted sample (caused by the addition of Triton X-100).

[3] = Particle size and polydispersity index of nanoparticle compositions (Zetasizer Nano ZS); assay type: physicochemical; settings: Table 1A; for Size (nm): lipid:DSPC:cholesterol:PEG-DMG 50:10:38.5:1.5 mol %
Protocol: A Zetasizer Nano ZS (Malvern Instruments Ltd, Malvern, Worcestershire, UK) can be used to determine the particle size, the polydispersity index (PDI) and the zeta potential of the nanoparticle compositions in 1×PBS in determining particle size and 15 mM PBS in determining zeta potential.

[4] = tested on: luciferase (Luc) mRNA; assay: Luc expression, whole body bioluminescence after intravenous administration to mice; assay type: in vivo; settings: for Total Flux 3 hours / Total Flux 6 hours / Total Flux 24 hours: mice, i.v., 0.5 mg/kg, Luc mRNA
Protocol: In order to monitor how effectively various nanoparticle compositions deliver therapeutic and/or prophylactics to targeted cells, different nanoparticle compositions including a particular therapeutic and/or prophylactic (for example, a modified or naturally occurring RNA such as an mRNA) are prepared and administered to rodent populations. Mice are intravenously, intramuscularly, intraarterially, or intratumorally administered a single dose including a nanoparticle composition with a formulation such as those provided in Example 3. In some instances, mice may be made to inhale doses. Dose sizes may range from 0.001 mg/kg to 10 mg/kg, where 10 mg/kg describes a dose including 10 mg of a therapeutic and/or prophylactic in a nanoparticle composition for each 1 kg of body mass of the mouse. A control composition including PBS may also be employed.
Upon administration of nanoparticle compositions to mice, dose delivery profiles, dose responses, and toxicity of particular formulations and doses thereof can be measured by enzyme-linked immunosorbent assays (ELISA), bioluminescent imaging, or other methods. For nanoparticle compositions including mRNA, time courses of protein expression can also be evaluated. Samples collected from the rodents for evaluation may include blood, sera, and tissue (for example, muscle tissue from the site of an intramuscular injection and internal tissue); sample collection may involve sacrifice of the animals.
The efficacy of the nanoparticle compositions presented in Table 1A was evaluated with a bioluminescence study. Formulations were administered intravenously to mice (n=6) at a dosage of 0.5 mg/kg (mpk) and bioluminescence measured at 3, 6, and 24 hour time points. The standard MC3 formulation and, in some instances, a control (e.g., a PBS control) were evaluated for comparison. […] In general, flux decreased as time progressed to less than 10% of the initial flux.
(§1) Whole body and ex vivo organ bioluminescent imaging of mice: CD-1 mice were injected 15 minutes prior to the imaging timepoint intraperitoneally (IP) with 200 μL Xenolight D-luciferin K+ salt, diluted in PBS just prior to use to a concentration of 15 mg/mL. Ex vivo imaging of organs was completed within 25 minutes of luciferin administration. All images were quantified by region of interest for total flux.

[5] = tested on: luciferase (Luc) mRNA; assay: Luc expression in liver, lung, spleen and femur 6 hours after intravenous administration; assay type: in vivo; settings: mice, intravenous, 0.5 mpk
Protocol: The efficacy of the nanoparticle compositions presented in Table 1A was further evaluated by measuring the expression of modified luciferase in the liver, lung, spleen, and femur upon administration of a given composition. Formulations were administered intravenously to mice (n=3) at a dosage of 0.5 mpk and bioluminescence measured after 6 hours. The standard MC3 formulation and a PBS control were also tested. […] Flux in the liver was lowest for compositions including Compounds 58, 59, 137, and 141. Flux in the spleen was highest for compositions including Compounds 4, 7, 33, 34, 48, 53, 108, 129, 130, and 148, and lowest for compositions including Compounds 9, 59, 124, and 141.
as §1

SMILES	pKa [1]	EE (%) [2] [%]	PDI [3]	Size (nm) [3] [nm]	Total Flux 3 hours [4]	Total Flux 6 hours [4]	Total Flux Liver [5]	Total Flux Lung [5]	Total Flux Spleen [5]	Fold increase in total body Luc Flux relative to MC3 at 6 h ([4]; Table 3A, i.v. administration)	Total Flux 24 hours [4]
CCCCCCCCCOC(=O)CCCCCCCN(CCCCCCCC(=O)OC(CCCCCCCC)CCCCCCCC)CCCn1cnc2c(N)ncnc21 [Compound 116, Heptadecan-9-yl 8-((3-(6-amino-9H-purin-9-yl)propyl)(8-(nonyloxy)-8-oxooctyl)amino)octanoate]	5.66	99.4	0.14	63.3	3.13E+07	3.86E+07					
CCCCCCCCCOC(=O)CCCCCCCN(CCCCCCCC(=O)OC(CCCCCCCC)CCCCCCCC)Cc1ccccc1 [Compound 94, Heptadecan-9-yl 8-(benzyl(8-(nonyloxy)-8-oxooctyl)amino)octanoate]	4.43	0	0.24	62.4							
CCCCCCCCCOC(=O)CCCCCCCN(CCCCCCCC(=O)OC(CCCCCCCC)CCCCCCCC)CCCn1ccnn1 [Compound 179, Heptadecan-9-yl 8-((3-(1H-1,2,3-triazol-1-yl)propyl)(8-(nonyloxy)-8-oxooctyl)amino)octanoate]	6.16	94.7	0.11	71.6							
CCCCCCCCC(CCCCCCCC)OC(=O)CCCCCCCN(CCO)CCCC(=O)OCCCC [Compound 51, heptadecan-9-yl 8-((4-butoxy-4-oxobutyl)(2-hydroxyethyl)amino) octanoate]		89.83	0.17	148.8	1.34E+08	2.80E+08	2.49E+07	3.67E+05	2.80E+07	0.025	6.20E+06
CCCCCCCCCOC(=O)CCCCCCCN(CCCCCCCC(=O)OC(CCCCCCCC)CCCCCCCC)CCCC(F)(F)F [Compound 107]	4.802	0	0.74	55							
CCCCCCCCC(CCCCCCCC)OC(=O)CCCCCCCN(CCO)CCCCCCCCC1CC1CCCCCCCC (stereo not drawn) [Compound 47, heptadecan-9-yl 8-((2-hydroxyethyl)(8-(2-octylcyclopropyl)octyl)amino)octanoate]		96.40	0.10	80.6	6.55E+10	5.38E+10	4.86E+09	8.71E+06	8.33E+07		2.09E+09
CCCCCCCCCOC(=O)CCCCCCCN(CCCCCCCC(=O)OC(CCCCCCCC)CCCCCCCC)CCCNC(=O)CO [Compound 198, Heptadecan-9-yl 8-((3-(2-hydroxyacetamido)propyl)(8-(nonyloxy)-8-oxooctyl)amino)octanoate]	7.62	99.5	0.24	84.2							
CCCCCCCCCOC(=O)CCCCCCCN(CCCCCCCC(=O)OC(CCCCCCCC)CCCCCCCC)CCCNC(=O)OC [Compound 181, Heptadecan-9-yl 8-((3-((methoxycarbonyl)amino)propyl)(8-(nonyloxy)-8-oxooctyl)amino)octanoate]	6.17	88.9	0.12	78.7							
